# Patent US12495798B2, “Nicotinamide compound and herbicidal composition comprising compound” (KOREA RESEARCH INSTITUTE OF CHEMICAL TECHNOLOGY, priority 2019, dated 2025)
# Tests used:
# Assay type in all cases: in vivo
# [1] = tested on: bindweed; assay: Herbicidal activity test against upland field weeds (foliar treatment test); conditions: 50 g ai/ha, scale 0-100
# How it was run: (§1)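 Weeds were raised from seed or rootstocks in horticultural soil in a greenhouse (30±5° C., 14/10 h light/dark), then foliage was hand-sprayed with compound at 50 or 75 g a.i./ha in 50% acetone with 0.1% Tween-20. Control was scored visually 0–100 against untreated plants after 14 days, or 21 if needed.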
# [2] = tested on: barnyard grass; assay: as above; conditions: 50 g ai/ha, scale 0-100; for pest or weed control at 50 g/ha: Echinochloa crus-galli
# How it was run: as §1
# [3] = tested on: crabgrass; assay: as above; conditions: 50 g ai/ha, scale 0-100; for pest or weed control at 50 g/ha: Digitaria sanguinalis
# How it was run: as §1
# [4] = tested on: velvetleaf; assay: as above; parameters: key to Foliar treatment herbicidal activity, velvet leaf: 0 (no control); 100 (complete control); conditions: 50 g ai/ha; for pest or weed control at 50 g/ha: Abutilon theophrasti, scale 0-100, read-out: Foliar treatment herbicidal activity, velvet leaf; for Foliar treatment herbicidal activity, velvet leaf: scale 0-100
# How it was run: as §1
# [5] = tested on: fall panicum; assay: as above; conditions: 50 g ai/ha, scale 0-100; for pest or weed control at 50 g/ha: Panicum dichotomiflorum
# How it was run: as §1
# [6] = tested on: quack grass; assay: as above; parameters: key to Foliar treatment herbicidal activity, quack grass: 0 (no control); 100 (complete control); conditions: 50 g ai/ha, scale 0-100
# How it was run: as §1
# [7] = tested on: wheat; assay: Phytotoxicity test for upland field crops (foliar treatment test); parameters: key: 0 (no harm); 9 (complete withered)
# How it was run: (§2)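 Greenhouse-grown crops (30±5 °C, 14/10 h light/dark) in soil pots were foliar-sprayed with compound in 33% acetone/0.1% Tween-20 at 19˜300 g a.i./ha, 100 ml per m^2. Injury was graded 0 (no harm) to 9 (complete withered) versus untreated control at 7 and 14 days after treatment, or 21 days if needed.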
# [8] = tested on: corn; assay: as above; parameters: key: 0 (no harm); 9 (complete withered)
# How it was run: as §2
# [9] = tested on: sorghum; assay: Herbicidal activity test against upland field weeds (foliar treatment test); conditions: 50 g ai/ha, scale 0-100; for plant injury at 50 g/ha: Sorghum
# How it was run: as §1
# [10] = tested on: indian jointvetch; assay: as above; parameters: key to Foliar treatment herbicidal activity, Indian jointvetch: 0 (no control); 100 (complete control); conditions: 50 g ai/ha, scale 0-100
# How it was run: as §1
# [11] = tested on: black nightshade; assay: as above; parameters: key to Foliar treatment herbicidal activity, black nightshade: 0 (no control); 100 (complete control); conditions: 50 g ai/ha, scale 0-100
# How it was run: as §1
# [12] = tested on: cocklebur; assay: as above; conditions: 50 g ai/ha, scale 0-100; for pest or weed control at 50 g/ha: Xanthium strumarium
# How it was run: as §1
# [13] = 50 g ai/ha, Wheat (7 days after treatment)
# [14] = 50 g ai/ha, Wheat (14 days after treatment)
# [15] = 100 g ai/ha, Wheat (7 days after treatment)
# [16] = 100 g ai/ha, Wheat (14 days after treatment)
# [17] = 50 g ai/ha, Corn (7 days after treatment)
# [18] = 50 g ai/ha, Corn (14 days after treatment)
# [19] = 100 g ai/ha, Corn (7 days after treatment)
# [20] = 100 g ai/ha, Corn (14 days after treatment)
structure (smiles),measurement,setting,value
"Cn1nc(COCc2nc(C(F)(F)F)ccc2C(=O)Nc2nnnn2C)nc1CF [Compound No. 2-126, 2-(((5-(fluoromethyl)-1-methyl-1H-1,2,4-triazol-3-yl)methoxy)methyl)-N-(1-methyl-1H-tetrazol-5-yl)-6-(trifluoromethyl)nicotinamide]",pest or weed control at 50 g/ha,[1],20%
same,pest or weed control at 50 g/ha,[2],80%
same,pest or weed control at 50 g/ha,[3],90%
same,pest or weed control at 50 g/ha,[4],80%
same,pest or weed control at 50 g/ha,[5],80%
same,"Foliar treatment herbicidal activity, quack grass",[6],0
same,"Foliar treatment phytotoxicity, Wheat",[7]; [13],0
same,"Foliar treatment phytotoxicity, Wheat",[7]; [14],0
same,"Foliar treatment phytotoxicity, Wheat",[7]; [15],0
same,"Foliar treatment phytotoxicity, Wheat",[7]; [16],0
same,"Foliar treatment phytotoxicity, Corn",[8]; [17],1
same,"Foliar treatment phytotoxicity, Corn",[8]; [18],1
same,"Foliar treatment phytotoxicity, Corn",[8]; [19],3
same,"Foliar treatment phytotoxicity, Corn",[8]; [20],2
same,plant injury at 50 g/ha,[9],60%
same,pest or weed control at 50 g/ha,[10],50%
same,"Foliar treatment herbicidal activity, black nightshade",[11],100
same,pest or weed control at 50 g/ha,[12],90%
Cn1nc(COCc2nc(C(F)(F)F)ccc2C(=O)Nc2nnnn2C)nc1I [Compound No. 2-137],"Foliar treatment herbicidal activity, Bindweed",[1],70
same,"Foliar treatment herbicidal activity, barnyard grass",[2],95
same,"Foliar treatment herbicidal activity, Crabgrass",[3],95
same,"Foliar treatment herbicidal activity, velvet leaf",[4],100
same,"Foliar treatment herbicidal activity, Fall panicum",[5],50
same,"Foliar treatment herbicidal activity, quack grass",[6],0
same,"Foliar treatment phytotoxicity, Wheat",[7]; [13],0
same,"Foliar treatment phytotoxicity, Wheat",[7]; [14],0
same,"Foliar treatment phytotoxicity, Wheat",[7]; [15],0
same,"Foliar treatment phytotoxicity, Wheat",[7]; [16],0
same,"Foliar treatment phytotoxicity, Corn",[8]; [17],0
same,"Foliar treatment phytotoxicity, Corn",[8]; [18],0
same,"Foliar treatment phytotoxicity, Corn",[8]; [19],0
same,"Foliar treatment phytotoxicity, Corn",[8]; [20],0
same,"Foliar treatment herbicidal activity, Sorghum",[9],60
same,"Foliar treatment herbicidal activity, Indian jointvetch",[10],100
same,"Foliar treatment herbicidal activity, black nightshade",[11],100
same,"Foliar treatment herbicidal activity, Cocklebur",[12],98
"CCCn1nnnc1NC(=O)c1ccc(C(F)(F)F)nc1COCc1nnn(CC)n1 [Compound No. 2-89, 2-(((2-ethyl-2H-tetrazol-5-yl)methoxy)methyl)-N-(1-propyl-1H-tetrazol-5-yl)-6-(trifluoromethyl)nicotinamide]",pest or weed control at 50 g/ha,[1],70%
same,pest or weed control at 50 g/ha,[2],95%
same,pest or weed control at 50 g/ha,[3],60%
same,pest or weed control at 50 g/ha,[4],50%
same,pest or weed control at 50 g/ha,[5],90%
same,"Foliar treatment herbicidal activity, quack grass",[6],0
same,"Foliar treatment phytotoxicity, Wheat",[7]; [13],0
same,"Foliar treatment phytotoxicity, Wheat",[7]; [14],0
same,"Foliar treatment phytotoxicity, Wheat",[7]; [15],0
same,"Foliar treatment phytotoxicity, Wheat",[7]; [16],0
same,"Foliar treatment phytotoxicity, Corn",[8]; [17],0
same,"Foliar treatment phytotoxicity, Corn",[8]; [18],0
same,"Foliar treatment phytotoxicity, Corn",[8]; [19],0
same,"Foliar treatment phytotoxicity, Corn",[8]; [20],0
same,plant injury at 50 g/ha,[9],50%
same,pest or weed control at 50 g/ha,[10],40%
same,"Foliar treatment herbicidal activity, black nightshade",[11],100
same,pest or weed control at 50 g/ha,[12],90%
Cn1nnnc1NC(=O)c1ccc(C(F)(F)F)nc1COCc1nc(C(F)F)n(C)n1 [Compound No. 2-123],"Foliar treatment herbicidal activity, Bindweed",[1],80
same,"Foliar treatment herbicidal activity, barnyard grass",[2],95
same,"Foliar treatment herbicidal activity, Crabgrass",[3],95
same,"Foliar treatment herbicidal activity, velvet leaf",[4],70
same,"Foliar treatment herbicidal activity, Fall panicum",[5],95
same,"Foliar treatment herbicidal activity, quack grass",[6],40
same,"Foliar treatment phytotoxicity, Wheat",[7]; [13],0
same,"Foliar treatment phytotoxicity, Wheat",[7]; [14],0
same,"Foliar treatment phytotoxicity, Wheat",[7]; [15],0
same,"Foliar treatment phytotoxicity, Wheat",[7]; [16],0
same,"Foliar treatment phytotoxicity, Corn",[8]; [17],3
same,"Foliar treatment phytotoxicity, Corn",[8]; [18],2
same,"Foliar treatment phytotoxicity, Corn",[8]; [19],4
same,"Foliar treatment phytotoxicity, Corn",[8]; [20],4
same,"Foliar treatment herbicidal activity, Sorghum",[9],70
same,"Foliar treatment herbicidal activity, Indian jointvetch",[10],70
same,"Foliar treatment herbicidal activity, black nightshade",[11],98
same,"Foliar treatment herbicidal activity, Cocklebur",[12],90
